Drawing on PubChem BioAssay (NCI), this text covers TGI and GI50 for 10 compounds.

Molecules are shown by their SMILES. Values joined by “and” are separate entries in the source; they are usually repeats but may differ in a detail not shown here. Identical values can stand only once.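 In this assay, cells in 96-well plates receive the compound at five concentrations for 48 hours. Endpoints are linearly interpolated between the surrounding concentrations. GI50 = concentration required for 50% inhibition of growth. TGI marks complete inhibition of growth.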

Common to all, as to experiment: DTP human tumour cell line panel, 48 h
Experiment [1] has as its system A498 renal.
Experiment [2] relates to HL-60(TB) leukemia.
In experiment [3] the test system is OVCAR-5 ovarian.
Experiment [4] deals with SW-620 colon.
The subject of experiment [5] is CAKI-1 renal.
Experiment [6] relates to SN12C renal.
The test system of experiment [7] is BT-549 breast.
The subject of experiment [8] is TK-10 renal.
The test system of experiment [9] is A549 NSCLC.
Experiment [10] deals with SF-539 CNS.

Consider `COc1cc2ccccc2oc1=O`, for which the TGI in [1], in experiment [2], in experiment [3], in [4], in experiment [5] and in experiment [6] was above 100 µM in each case. Further, the TGI in [7], in experiment [8], in experiment [9] and in experiment [10] was above 100 µM in each case.
In the case of `Cc1cc(NCCN(C(C)C)C(C)C)nc(/N=C(\N)Nc2ccc(Cl)c(C(F)(F)F)c2)n1`, the GI50 – broadly, the concentration giving 50% growth inhibition – in experiment [1] was 0.139 µM; in experiment [2], 0.38 µM; in [3], 2.36 µM; in [4], 0.532 µM; in [5], 0.427 µM; in [6] it was 1.34 µM. The GI50 in experiment [7] is 1.64 µM; in experiment [8], 0.297 µM; in experiment [9], 0.356 µM; in experiment [10], 0.179 µM. Besides, the TGI (as a rule, the concentration at which net growth stops) in experiment [1] is 1.42 µM; in experiment [2], 0.952 µM; in experiment [3] it was 5.24 µM; in experiment [4], 1.62 µM; in experiment [5], 1.02 µM; in experiment [6] it was 2.87 µM. Moreover, the TGI in experiment [7] came out at 3.59 µM; in [8] it was 1.04 µM; in experiment [9] it was 1.11 µM; in experiment [10] it was 0.329 µM.
As for `N#CCCN(CCCN(CCCN(C(=O)Nc1ccccc1)c1ccccc1)C(=O)Nc1ccccc1)C(=O)Nc1ccccc1`, the TGI in experiment [1] is above 100 µM; in experiment [2] it was > 8.75 µM and 15.6 µM; in experiment [3], above 100 µM; in experiment [4], above 100 µM; in experiment [5], above 100 µM; in [6], above 100 µM. Further, the TGI in [7], in experiment [8], in experiment [9] and in experiment [10] was above 100 µM throughout. Also, the GI50 is 5.2 µM in experiment [2]; above 100 µM in experiment [3]; above 100 µM in [4]; above 100 µM in experiment [5]; above 100 µM in experiment [6]; above 100 µM in [7]. Besides, the GI50 in experiment [8], in [9] and in [10] was above 100 µM each time.
In the case of `O=CN/C=C/c1cccc(O)c1`, the TGI in [1] is above 76.8 µM; in experiment [2] it was above 100 µM; in [3], above 96.1 µM; in [4], 98.8 µM; in experiment [5], above 79.7 µM; in [6] it was above 100 µM. Besides, the TGI in experiment [7] was 58.5 µM; in experiment [8] it was above 100 µM; in [9], 79.7 µM; in experiment [10], above 83 µM.
Consider `CCN(Cc1ccc(F)cc1)c1ccc(CO)c(F)c1`, for which the GI50 is 0.114 µM in experiment [1]; 12.8 µM in [2]; 1.26 µM in experiment [3]; 7.09 µM in experiment [4]; 3.74 µM in [5]; 19.5 µM in experiment [6]. Besides, the GI50 is 12.5 µM in experiment [7], 0.625 µM in [8], 10.5 µM in experiment [9] and 18.8 µM in experiment [10]. The TGI in experiment [1] is 0.252 µM; in [2], 37.3 µM; in experiment [3] it was 4.13 µM; in experiment [4] it was above 100 µM; in experiment [5], 36.4 µM; in [6], 99.1 µM. The TGI in [7] was 39.4 µM; in [8], 3.07 µM; in [9] it was above 66.1 µM; in experiment [10], 56.5 µM.
Take `CC(=O)OC[C@]12CC[C@@H](C(=O)CBr)[C@@H]1[C@H]1CC[C@@H]3[C@@]4(C)CCCNC(C)(C)[C@@H]4CC[C@@]3(C)[C@]1(C)CC2`: the GI50 in [1] was 15 µM; in experiment [2], 2.11 µM; in [3], 13.5 µM; in [4] it was 2.77 µM; in experiment [5] it was 1.81 µM; in [6] it was 2.28 µM. Further, the GI50 was 2.2 µM in experiment [7], 2.93 µM in [8], 14.5 µM in experiment [9] and 2.42 µM in experiment [10]. Moreover, the TGI was determined as 28.5 µM in experiment [1]; 4.95 µM in experiment [2]; 26.6 µM in [3]; 8.06 µM in experiment [4]; 4.13 µM in experiment [5]; 5.25 µM in experiment [6]. The TGI in [7] amounted to 5.52 µM; in experiment [8], 11.6 µM; in experiment [9] it was 31.9 µM; in [10] it was 6.57 µM.
As to `COc1cc(NC(C)CCCN)c2ncccc2c1` (centres undefined), the GI50 is 30.6 µM and 76.7 µM in [1]; 41.4 µM and > 84.4 µM in experiment [6]. The TGI in experiment [1] is above 100 µM; in experiment [2] it was > 37.3 µM and 28.9 µM; in experiment [3], above 100 µM; in experiment [4], above 100 µM; in experiment [5], above 100 µM; in [6] it was above 100 µM. Moreover, the TGI in experiment [7], in [8], in experiment [9] and in experiment [10] was above 100 µM in each case.
For the compound `O=C(O)C1OC1(c1cccc(Cl)c1)c1ccccc1Cl` (centres undefined), the TGI in [1] is above 100 µM; in experiment [2], 55.2 µM; in experiment [3] it was above 100 µM; in experiment [4], above 100 µM; in experiment [5] it was 81.8 µM; in experiment [6], 56.3 µM. Also, the TGI is 39 µM in [7], above 100 µM in experiment [8], above 100 µM in experiment [9] and 43.7 µM in [10].
Take `COc1ccc2c(c1)nnn1c3ncccc3c(N=O)c21`: the GI50 in experiment [1] was 1.27 µM and 6.23 µM; in [2] it was 0.0433 µM and 0.359 µM; in experiment [3] it was 8.02 µM and 4.57 µM; in experiment [4], 0.27 µM and 1.34 µM; in [5], 0.0892 µM and 0.202 µM; in experiment [6], 1.4 µM and 2.06 µM. Moreover, the GI50 in [7] was 5.06 µM and 1.46 µM; in experiment [8], 5.08 µM; in [9], 10.8 µM and 3.87 µM; in experiment [10], 0.467 µM and 1.51 µM. Moreover, the TGI in experiment [1] was 6.26 µM and 22.5 µM; in experiment [3] it was 23.2 µM and > 100 µM; in experiment [5] it was 0.359 µM and 1.59 µM; in experiment [6], 8.1 µM and 9.82 µM; in [7] it was 16.3 µM and 4.68 µM; in [8], 19.2 µM. Also, the TGI in experiment [9] is 50 µM and 15.7 µM; in experiment [10] it was 1.24 µM and 3.18 µM.
As for `COC(=O)c1ccccc1OCc1cc(=O)oc2ccc(C)cc12`, the TGI in experiment [1], in experiment [2], in experiment [3], in [4], in experiment [5] and in [6] was above 100 µM each time. The TGI in [7] is above 100 µM; in experiment [8] it was above 100 µM; in experiment [9] it was above 100 µM; in [10], 78.5 µM.
